Like-named read-outs stand apart in the source and are kept apart here.
How the values were obtained:
R30dm cells = assay: Growth inhibition of R30dm subline (decreased polyglutamate synthase); format: cell-based; settings: Homo sapiens, Table 8, continuous (0-120 hours) exposure, read-out: Growth inhibition EC50, R30dm
R2 cells = assay: Growth inhibition of R2 subline (MTX-transport deficient); format: cell-based; settings: Homo sapiens; Table 8; continuous (0-120 hours) exposure; read-out: Growth inhibition EC50, R2
A253 = assay: Growth inhibition of A253 human squamous carcinoma cell line; format: cell-based; settings: Table 9, continuous (120 hours) exposure
Protocol: The performance of these compounds was evaluated against MTX.

SR = assay: NCI in vitro anti-cancer activity, Leukemia; format: cell-based; settings: Homo sapiens, Leukemia
A549/ATCC = format: cell-based
HOP-62 = format: cell-based; settings: Homo sapiens; HOP-62, Non-Small Cell Lung Cancer
NCI-H522 = format: cell-based
COLO 205 = assay: NCI in vitro anti-cancer activity, Colon Cancer; format: cell-based
HCT-116 = assay: NCI in vitro anti-cancer activity, Colon Cancer; format: cell-based
HCT-15 = assay: NCI in vitro anti-cancer activity, Colon Cancer; format: cell-based
HT29 = assay: NCI in vitro anti-cancer activity, Colon Cancer; format: cell-based
SF-295 = assay: NCI in vitro anti-cancer activity, CNS Cancer; format: cell-based
SF-539 = assay: NCI in vitro anti-cancer activity, CNS Cancer; format: cell-based
SNB-75 = assay: NCI in vitro anti-cancer activity, CNS Cancer; format: cell-based
LOX IMVI = assay: NCI in vitro anti-cancer activity, Melanoma; format: cell-based
M14 = assay: NCI in vitro anti-cancer activity, Melanoma; format: cell-based
SK-MEL-2 = assay: NCI in vitro anti-cancer activity, Melanoma; format: cell-based
OVCAR-3 = assay: NCI in vitro anti-cancer activity, Ovarian Cancer; format: cell-based
OVCAR-4 = assay: NCI in vitro anti-cancer activity, Ovarian Cancer; format: cell-based
OVCAR-8 = assay: NCI in vitro anti-cancer activity, Ovarian Cancer; format: cell-based
ACHN = assay: NCI in vitro anti-cancer activity, Renal Cancer; format: cell-based
TK-10 = assay: NCI in vitro anti-cancer activity, Renal Cancer; format: cell-based
UO-31 = assay: NCI in vitro anti-cancer activity, Renal Cancer; format: cell-based
PC-3 = assay: NCI in vitro anti-cancer activity, Prostate Cancer; format: cell-based
MCF7/ADR-RES = assay: NCI in vitro anti-cancer activity, Breast Cancer; format: cell-based; settings: Homo sapiens
MDA-MB-231/ATCC = assay: NCI in vitro anti-cancer activity, Breast Cancer; format: cell-based
MDA-N = assay: NCI in vitro anti-cancer activity, Breast Cancer; format: cell-based
T-47D = assay: NCI in vitro anti-cancer activity, Breast Cancer; format: cell-based; settings: Homo sapiens, T47D, Breast Cancer
RL DHFR = molecular target: T1, RL DHFR (Rattus norvegicus, UniProt Q920D2); assay: Inhibition of DHFR from rat liver; format: biochemical; settings: @ 31 μM
T1 construct: Toxoplasmosis gondii (Tg) and rat liver (RL); from tissue; host or cells: rat liver
T1 sequence (Q920D2 1-187): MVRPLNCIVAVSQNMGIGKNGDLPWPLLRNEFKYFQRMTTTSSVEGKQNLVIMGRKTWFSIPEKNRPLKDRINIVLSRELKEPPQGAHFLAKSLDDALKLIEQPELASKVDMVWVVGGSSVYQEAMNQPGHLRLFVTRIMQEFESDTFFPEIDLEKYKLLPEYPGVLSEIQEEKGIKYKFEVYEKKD
Protocol: The selectivity ratio is a measure of the selectivity of a compound for Pc DHFR or Tg DHFR and is expressed as the IC50 value of the DHFR from rate liver (RL) divided by the IC50 value of either the Pc DHFR or the Tg DHFR, depending on which organism the compounds are being tested against. For example, the selectivity ratio of a compound is calculated by the following formula: [formula]

L. casei DHFR = L. casei DHFR (Lacticaseibacillus casei, UniProt P00381); assay: Inhibition of Lactobacillus casei DHFR; format: biochemical; settings: at […] 10^−5
Sequence of L. casei DHFR (P00381 whole entry): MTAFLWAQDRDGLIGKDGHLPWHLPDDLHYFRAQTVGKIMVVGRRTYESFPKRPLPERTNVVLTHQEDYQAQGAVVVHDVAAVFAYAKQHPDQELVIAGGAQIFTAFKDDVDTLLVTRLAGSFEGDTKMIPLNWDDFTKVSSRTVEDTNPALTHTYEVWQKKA

CCRF-CEM = assay: NCI in vitro anti-cancer activity, Leukemia; format: cell-based; settings: Table 29, Leukemia
HL-60 (TB) = assay: NCI in vitro anti-cancer activity, Leukemia; format: cell-based; settings: Table 29, Leukemia
RPMI-8226 = assay: NCI in vitro anti-cancer activity, Leukemia; format: cell-based; settings: Table 29, Leukemia

Question: For Nc1nc(N)c2c(CNc3ccc(C(=O)N[C@@H](CCC(=O)O)C(=O)O)cc3)c[nH]c2n1 [Compound 9], which EC50 (R30dm cells) is on record?
Answer: Its EC50 is 0.036 ± 0.001 µM.

Question: What about the EC50 (R2 cells) of the same molecule?
Answer: The EC50 was 1.65 ± 0.2 µM.

Question: What about the EC50 (A253) of the same molecule?
Answer: Its EC50 is 0.046 ± 0.004 µM.

Question: And the GI50 (SR)?
Answer: The GI50 was greater than 100 µM.

Question: And the GI50 (A549/ATCC; Homo sapiens, Non-Small Cell Lung Cancer)?
Answer: The GI50 was less than 0.01 µM.

Question: What about the GI50 (HOP-62) of the same molecule?
Answer: The GI50 was less than 0.01 µM.

Question: And the GI50 (NCI-H522; Homo sapiens, NCI-H522, Non-Small Cell Lung Cancer)?
Answer: Its GI50 is greater than 100 µM.

Question: And the GI50 (COLO 205; Homo sapiens, COLO 205, Colon Cancer)?
Answer: The GI50 was greater than 100 µM.

Question: And the GI50 (HCT-116; Homo sapiens)?
Answer: The GI50 was less than 0.01 µM.

Question: What about the GI50 (HCT-15; Homo sapiens, HCT-15, Colon Cancer) of the same molecule?
Answer: Its GI50 is less than 0.01 µM.

Question: And the GI50 (HT29; Homo sapiens, HT-29, HT29, Colon Cancer)?
Answer: Its GI50 is less than 0.01 µM.

Question: And the GI50 (SF-295; Homo sapiens, SF-295, CNS Cancer)?
Answer: The GI50 was less than 0.01 µM.

Question: What about the GI50 (SF-539; Homo sapiens) of the same molecule?
Answer: Its GI50 is less than 0.01 µM.

Question: And the GI50 (SNB-75; Homo sapiens, SNB-75, CNS Cancer)?
Answer: The GI50 was less than 0.01 µM.

Question: What about the GI50 (LOX IMVI; Homo sapiens, Melanoma) of the same molecule?
Answer: The GI50 was less than 0.01 µM.

Question: And the GI50 (M14; Homo sapiens, M14, Melanoma)?
Answer: The GI50 was less than 0.01 µM.

Question: What about the GI50 (SK-MEL-2; Homo sapiens, SK-MEL-2, Melanoma) of the same molecule?
Answer: Its GI50 is greater than 100 µM.

Question: What about the GI50 (OVCAR-3; Homo sapiens, OVCAR-3, Ovarian Cancer) of the same molecule?
Answer: The GI50 was greater than 100 µM.

Question: What about the GI50 (OVCAR-4; Homo sapiens, OVCAR-4, Ovarian Cancer) of the same molecule?
Answer: Its GI50 is greater than 100 µM.

Question: What about the GI50 (OVCAR-8; Homo sapiens, OVCAR-8, Ovarian Cancer) of the same molecule?
Answer: Its GI50 is less than 0.01 µM.

Question: What about the GI50 (ACHN; Homo sapiens, Renal Cancer) of the same molecule?
Answer: The GI50 was less than 0.01 µM.

Question: And the GI50 (TK-10; Homo sapiens, TK-10, Renal Cancer)?
Answer: The GI50 was greater than 100 µM.

Question: What about the GI50 (UO-31; Homo sapiens, UO-31, Renal Cancer) of the same molecule?
Answer: Its GI50 is less than 0.01 µM.

Question: What about the GI50 (PC-3; Homo sapiens, PC-3, Prostate Cancer) of the same molecule?
Answer: The GI50 was greater than 100 µM.

Question: And the GI50 (MCF7/ADR-RES)?
Answer: The GI50 was less than 0.01 µM.

Question: And the GI50 (MDA-MB-231/ATCC; Homo sapiens, Breast Cancer)?
Answer: Its GI50 is greater than 100 µM.

Question: And the GI50 (MDA-N; Homo sapiens, Breast Cancer)?
Answer: Its GI50 is less than 0.01 µM.

Question: What about the GI50 (T-47D) of the same molecule?
Answer: Its GI50 is greater than 100 µM.

Question: For COc1ccc(CCc2cn(Cc3ccccc3)c3nc(N)nc(C)c23)cc1 [Compound 113-118], which “% inhibition RL DHFR” value (RL DHFR) is on record?
Answer: The value was 48% @.

Question: And the “% inhibition obtained at the stated concentration, L. casei DHFR” value (L. casei DHFR)?
Answer: The value was 0%.

Question: What about the GI50 (CCRF-CEM) of the same molecule?
Answer: The GI50 was greater than 100 µM.

Question: What about the GI50 (HL-60 (TB)) of the same molecule?
Answer: The GI50 was greater than 100 µM.

Question: And the GI50 (RPMI-8226)?
Answer: The GI50 was greater than 100 µM.

Question: And the GI50 (A549/ATCC; Table 29, Non-Small Cell Lung Cancer)?
Answer: The GI50 was 99.8 µM.

Question: And the GI50 (NCI-H522; Table 29, Non-Small Cell Lung Cancer, NCI-H522)?
Answer: Its GI50 is 29.1 µM.

Question: And the GI50 (COLO 205; Table 29, Colon Cancer, COLO 205)?
Answer: The GI50 was 38.2 µM.

Question: And the GI50 (HCT-116; Table 29, Colon Cancer)?
Answer: The GI50 was 48.3 µM.

Question: What about the GI50 (HCT-15; Table 29, Colon Cancer, HCT-15) of the same molecule?
Answer: The GI50 was 51.4 µM.

Question: And the GI50 (HT29; Table 29, Colon Cancer, HT29)?
Answer: Its GI50 is 48.4 µM.

Question: What about the GI50 (SF-295; Table 29, CNS Cancer, SF-295) of the same molecule?
Answer: Its GI50 is 79.3 µM.

Question: What about the GI50 (SF-539; Table 29, CNS Cancer) of the same molecule?
Answer: Its GI50 is 30.2 µM.

Question: What about the GI50 (SNB-75; Table 29, CNS Cancer, SNB-75) of the same molecule?
Answer: The GI50 was greater than 100 µM.

Question: And the GI50 (LOX IMVI; Table 29, Melanoma)?
Answer: Its GI50 is 50 µM.

Question: And the GI50 (M14; Table 29, Melanoma, M14)?
Answer: The GI50 was 93.6 µM.

Question: What about the GI50 (SK-MEL-2; Table 29, Melanoma, SK-MEL-2) of the same molecule?
Answer: The GI50 was greater than 100 µM.

Question: And the GI50 (OVCAR-3; Table 29, Ovarian Cancer, OVCAR-3)?
Answer: Its GI50 is greater than 100 µM.

Question: What about the GI50 (OVCAR-4; Table 29, Ovarian Cancer, OVCAR-4) of the same molecule?
Answer: The GI50 was 80.1 µM.

Question: And the GI50 (OVCAR-8; Table 29, Ovarian Cancer, OVCAR-8)?
Answer: The GI50 was 52.5 µM.

Question: What about the GI50 (ACHN; Table 29, Renal Cancer) of the same molecule?
Answer: Its GI50 is 34.8 µM.

Question: What about the GI50 (TK-10; Table 29, Renal Cancer, TK-10) of the same molecule?
Answer: The GI50 was greater than 100 µM.

Question: What about the GI50 (UO-31; Table 29, Renal Cancer, UO-31) of the same molecule?
Answer: Its GI50 is greater than 100 µM.

Question: What about the GI50 (PC-3; Table 29, Prostate Cancer, PC-3) of the same molecule?
Answer: Its GI50 is 64 µM.

Question: What about the GI50 (MDA-MB-231/ATCC; Table 29, Breast Cancer) of the same molecule?
Answer: Its GI50 is less than 100 µM.

Question: And the GI50 (MDA-N; Table 29, Breast Cancer)?
Answer: The GI50 was 78.3 µM.
